Laboratory results taken from ChEMBL document CHEMBL5370655.

Experiments:
[1] = MRT (0 to infinity) in Sprague-Dawley rat at 50 mg/kg, po measured upto 24 hrs by HPLC-MS/MS analysis; assay type: ADME, organism-based; details: in vivo
[2] = target: Epidermal growth factor receptor (Homo sapiens, UniProt P00533, C797S/EX19DEL/T790M)
[3] = Induction of cell cycle arrest in human H1975-TM cells assessed as accumulation at G0/G1 phase at 500 nM measured after 24 hrs by RNase A/propidium iodide staining based flow cytometric analysis (reference value: 64.3 %); assay type: functional
[4] = Antitumor activity against human H1975-TM cells xenografted in BALB/c mouse assessed as tumor growth inhibition at 100 mg/kg, po measured after 25 days; assay type: functional; details: time 25 day
[5] = Inhibition of colony formation in human H1975-TM cells at 250 nM incubated for 10 days by crystal violet staining based analysis; assay type: functional; details: time 10 day
[6] = Induction of cell cycle arrest in human H1975-TM cells assessed as accumulation at G2/M phase at 50 nM measured after 24 hrs by RNase A/propidium iodide staining based flow cytometric analysis (reference value: 17.6 %); assay type: functional
[7] = target: Epidermal growth factor receptor (Homo sapiens, UniProt P00533, C797S/L858R/T790M)
[8] = Tmax in Sprague-Dawley rat at 5 mg/kg, iv measured upto 24 hrs by HPLC-MS/MS analysis; assay type: ADME, organism-based; details: in vivo
[9] = target: Epidermal growth factor receptor (Homo sapiens, UniProt P00533, L858R/T790M); test: Inhibition of EGFR L858R/T790M double mutant (unknown origin) using polyE4Y1 as substrate incubated for 5 mins with compound followed by substrate addition measured after 60 mins in presence of ATP by ADP-Glo reagent based assay
[10] = Induction of cell cycle arrest in human H1975-TM cells assessed as accumulation at G2/M phase at 500 nM measured after 24 hrs by RNase A/propidium iodide staining based flow cytometric analysis (reference value: 17.6 %); assay type: functional

Chain of Epidermal growth factor receptor (Homo sapiens, UniProt P00533, L858R/T790M) (P00533 25-1210 T790M/L858R limits assumed): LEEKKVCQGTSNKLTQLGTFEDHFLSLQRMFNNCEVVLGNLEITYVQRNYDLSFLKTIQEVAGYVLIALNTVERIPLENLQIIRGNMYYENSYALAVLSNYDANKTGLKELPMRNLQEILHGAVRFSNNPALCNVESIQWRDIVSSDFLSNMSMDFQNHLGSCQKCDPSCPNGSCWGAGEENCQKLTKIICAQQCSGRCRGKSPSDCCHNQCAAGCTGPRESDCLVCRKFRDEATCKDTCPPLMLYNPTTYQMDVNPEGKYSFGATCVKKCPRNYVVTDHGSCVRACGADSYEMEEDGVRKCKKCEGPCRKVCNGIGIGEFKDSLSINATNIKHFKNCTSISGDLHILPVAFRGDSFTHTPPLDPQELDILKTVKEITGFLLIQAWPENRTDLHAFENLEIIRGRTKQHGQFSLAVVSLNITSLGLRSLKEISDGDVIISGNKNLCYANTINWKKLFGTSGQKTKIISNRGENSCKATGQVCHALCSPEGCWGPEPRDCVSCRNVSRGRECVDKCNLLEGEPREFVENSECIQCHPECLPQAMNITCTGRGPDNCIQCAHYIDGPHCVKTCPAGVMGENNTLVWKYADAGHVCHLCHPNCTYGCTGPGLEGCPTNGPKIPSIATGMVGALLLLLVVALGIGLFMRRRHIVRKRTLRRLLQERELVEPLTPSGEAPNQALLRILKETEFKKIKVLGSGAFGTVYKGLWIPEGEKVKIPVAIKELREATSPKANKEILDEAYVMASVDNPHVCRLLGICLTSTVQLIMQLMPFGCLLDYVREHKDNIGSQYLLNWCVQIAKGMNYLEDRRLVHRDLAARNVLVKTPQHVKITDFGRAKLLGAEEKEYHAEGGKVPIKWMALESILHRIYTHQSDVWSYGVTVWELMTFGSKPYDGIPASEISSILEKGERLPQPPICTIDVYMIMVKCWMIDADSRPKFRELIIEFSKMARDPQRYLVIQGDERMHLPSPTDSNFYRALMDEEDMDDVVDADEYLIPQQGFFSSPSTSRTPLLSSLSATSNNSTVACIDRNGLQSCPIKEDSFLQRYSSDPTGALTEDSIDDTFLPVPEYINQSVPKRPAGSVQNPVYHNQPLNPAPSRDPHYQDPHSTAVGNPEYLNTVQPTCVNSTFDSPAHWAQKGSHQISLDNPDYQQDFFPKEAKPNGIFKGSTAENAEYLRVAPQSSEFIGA
Chain of Epidermal growth factor receptor (Homo sapiens, UniProt P00533, C797S/EX19DEL/T790M) (P00533 whole entry, looked up, stated change not applied): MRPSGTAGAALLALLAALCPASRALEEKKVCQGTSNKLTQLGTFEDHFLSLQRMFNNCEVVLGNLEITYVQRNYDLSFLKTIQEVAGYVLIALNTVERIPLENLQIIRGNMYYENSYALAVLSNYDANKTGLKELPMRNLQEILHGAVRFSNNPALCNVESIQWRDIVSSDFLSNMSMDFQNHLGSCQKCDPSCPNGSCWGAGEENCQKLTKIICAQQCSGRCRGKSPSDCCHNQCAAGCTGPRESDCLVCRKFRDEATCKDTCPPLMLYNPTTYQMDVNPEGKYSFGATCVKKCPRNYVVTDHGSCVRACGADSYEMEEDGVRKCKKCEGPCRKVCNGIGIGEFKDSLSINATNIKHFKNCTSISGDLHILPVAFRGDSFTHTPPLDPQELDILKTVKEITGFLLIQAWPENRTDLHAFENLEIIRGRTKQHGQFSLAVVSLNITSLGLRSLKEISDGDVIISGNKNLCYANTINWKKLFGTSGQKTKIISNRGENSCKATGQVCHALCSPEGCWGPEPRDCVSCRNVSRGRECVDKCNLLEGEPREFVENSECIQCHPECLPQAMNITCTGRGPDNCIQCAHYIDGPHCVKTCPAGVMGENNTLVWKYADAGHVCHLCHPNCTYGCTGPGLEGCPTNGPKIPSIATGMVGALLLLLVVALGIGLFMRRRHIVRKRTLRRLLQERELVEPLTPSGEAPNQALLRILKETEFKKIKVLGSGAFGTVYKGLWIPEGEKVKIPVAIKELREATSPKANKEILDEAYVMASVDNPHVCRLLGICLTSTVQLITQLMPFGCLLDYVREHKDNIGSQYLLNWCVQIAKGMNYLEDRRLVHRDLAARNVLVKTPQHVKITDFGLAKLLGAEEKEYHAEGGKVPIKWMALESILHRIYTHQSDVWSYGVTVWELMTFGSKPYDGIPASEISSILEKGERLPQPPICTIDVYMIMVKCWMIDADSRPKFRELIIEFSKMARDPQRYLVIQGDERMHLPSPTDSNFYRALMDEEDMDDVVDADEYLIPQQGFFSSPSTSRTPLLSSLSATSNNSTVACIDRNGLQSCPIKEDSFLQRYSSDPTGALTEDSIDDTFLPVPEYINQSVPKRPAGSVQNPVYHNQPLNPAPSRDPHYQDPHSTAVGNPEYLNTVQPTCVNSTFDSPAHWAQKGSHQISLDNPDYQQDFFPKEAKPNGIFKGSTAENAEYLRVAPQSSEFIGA
Chain of Epidermal growth factor receptor (Homo sapiens, UniProt P00533, C797S/L858R/T790M) (P00533 25-1210 T790M/C797S/L858R limits assumed): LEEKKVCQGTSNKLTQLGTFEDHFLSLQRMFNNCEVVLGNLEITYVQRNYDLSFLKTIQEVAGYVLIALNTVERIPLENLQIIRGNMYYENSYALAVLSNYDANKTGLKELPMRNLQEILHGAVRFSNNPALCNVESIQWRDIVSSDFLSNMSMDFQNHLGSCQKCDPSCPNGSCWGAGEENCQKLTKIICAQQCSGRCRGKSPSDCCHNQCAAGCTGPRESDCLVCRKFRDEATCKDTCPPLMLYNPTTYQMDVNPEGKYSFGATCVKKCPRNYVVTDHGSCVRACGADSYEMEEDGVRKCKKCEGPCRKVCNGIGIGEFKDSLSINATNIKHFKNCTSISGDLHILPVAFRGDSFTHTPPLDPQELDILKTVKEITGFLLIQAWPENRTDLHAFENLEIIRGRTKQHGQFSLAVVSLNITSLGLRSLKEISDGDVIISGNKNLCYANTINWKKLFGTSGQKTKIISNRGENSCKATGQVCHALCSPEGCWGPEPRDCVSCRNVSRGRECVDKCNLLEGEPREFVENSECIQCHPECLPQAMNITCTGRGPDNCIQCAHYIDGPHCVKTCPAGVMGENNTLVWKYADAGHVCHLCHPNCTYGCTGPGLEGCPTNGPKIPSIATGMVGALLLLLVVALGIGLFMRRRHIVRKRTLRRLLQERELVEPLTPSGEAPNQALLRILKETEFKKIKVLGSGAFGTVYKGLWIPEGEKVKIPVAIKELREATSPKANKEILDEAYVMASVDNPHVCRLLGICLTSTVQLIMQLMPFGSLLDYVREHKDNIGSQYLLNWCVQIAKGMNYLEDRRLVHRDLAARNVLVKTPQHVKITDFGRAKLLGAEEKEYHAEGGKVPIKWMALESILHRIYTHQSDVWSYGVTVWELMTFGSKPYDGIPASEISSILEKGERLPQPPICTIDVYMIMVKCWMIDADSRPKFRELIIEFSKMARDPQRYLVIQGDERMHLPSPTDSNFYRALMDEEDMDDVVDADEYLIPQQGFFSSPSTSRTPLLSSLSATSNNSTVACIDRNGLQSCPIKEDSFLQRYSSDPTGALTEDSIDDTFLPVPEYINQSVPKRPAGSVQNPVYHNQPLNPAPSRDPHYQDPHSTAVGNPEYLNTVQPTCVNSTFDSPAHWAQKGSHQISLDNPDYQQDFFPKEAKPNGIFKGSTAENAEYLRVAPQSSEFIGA

CCS(=O)(=O)N1CCC(c2nc(-c3ccc(F)cc3)c(-c3ccnc(Nc4ccc5c(ccn5CCN(C)C)c4)n3)s2)CC1
MRT inf [1]: 5.43 h
IC50 [2]: 33 nM
Activity [3]: 76.3%
TGI [4]: 62.9%
inhibition (INH) [5]: 100%
Activity [6]: 14.4%
IC50 [7]: 261 nM
Tmax [8]: 4.8 min
IC50 [9]: 21 nM
Activity [10]: 13.4%
